Key:
[1] = target: T1, estrogen receptor consisting of calf uterus cytosol (Bos taurus, UniProt P49884); assay: Relative binding affinity (RBA) for the estrogen receptor, displacement of 3H-17β-estradiol; conditions: RBA(17β-estradiol) = 100
T1 construct: for the estrogen receptor consisting of calf uteri; from tissue; host or cells: calf uterus
T1 sequence (P49884 1-596): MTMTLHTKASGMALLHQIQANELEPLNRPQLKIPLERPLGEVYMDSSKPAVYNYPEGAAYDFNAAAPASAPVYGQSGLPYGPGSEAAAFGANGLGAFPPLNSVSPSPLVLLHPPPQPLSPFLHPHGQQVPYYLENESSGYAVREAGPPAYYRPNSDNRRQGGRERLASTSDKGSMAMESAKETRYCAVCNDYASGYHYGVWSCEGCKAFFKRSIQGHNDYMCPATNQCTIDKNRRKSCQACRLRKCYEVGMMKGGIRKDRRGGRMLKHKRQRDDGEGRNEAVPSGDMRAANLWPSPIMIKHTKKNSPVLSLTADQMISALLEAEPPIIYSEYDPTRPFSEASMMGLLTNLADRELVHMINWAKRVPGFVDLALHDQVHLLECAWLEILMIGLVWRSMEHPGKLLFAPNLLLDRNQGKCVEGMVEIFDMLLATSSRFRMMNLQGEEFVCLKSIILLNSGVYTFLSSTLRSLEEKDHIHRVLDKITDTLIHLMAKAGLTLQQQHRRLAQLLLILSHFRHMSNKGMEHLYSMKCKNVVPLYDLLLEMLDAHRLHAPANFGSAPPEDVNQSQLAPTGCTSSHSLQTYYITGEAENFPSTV

[2] = test system: hormone-sensitive human MCF-7 breast cancer cells; assay: Cytostatic activity on hormone-sensitive human MCF-7 breast cancer cells (T/C of optical densities); format: cell-based; conditions: mean of 16 determinations ± SD
uterus of infantile mice = assay: Uterus weight test in infantile mice (estrogenic and antiestrogenic action); format: in vivo; conditions: for estrogenic action on the uterus of infantile mice: s.c. in olive oil on three successive days, uterus dry weight/body weight 24 hours after the last injection
Procedure: Compound no. […] For compounds nos. […] The dose/animal was administered s.c., dissolved in olive oil, on three successive days. The dry weight of the uterus [mg]/body weight [g]×100 was determined 24 hours after the last injection. This test is described in detail in Cancer Treatment Reviews, 1984, 11, 147 and J. Med. Chem., 1984, 27, 1439.

[3] = substance concentration 1 · 10^−6 M in the incubation medium
[4] = substance concentration 1 · 10^−7 M in the incubation medium
[5] = substance concentration 1 · 10^−8 M in the incubation medium
[6] = substance concentration 1 · 10^−9 M in the incubation medium

Cc1c(-c2ccc(O)cc2)n(CCCCCCCCCCSCC(=O)N(C)C(C)C)c2ccc(O)cc12 [Compound 14, 5-hydroxy-2-(4-hydroxyphenyl)-3-methyl-1-[10-[(methyl-iso-propylcarbamoyl)-methylthio]-decyl]-indole]
RBA(*) relative binding affinity for the estrogen receptor [1]: 1.7

CCCS(=O)(=O)N(C)CCCCCCCCCCCn1c(-c2ccc(O)cc2)c(C)c2cc(O)ccc21 [Compound 8, 5-hydroxy-2-(4-hydroxyphenyl)-3-methyl-1-[11-(N-methyl-propylsulfonamido)-undecyl]-indole]
RBA(*) relative binding affinity for the estrogen receptor [1]: 1.8

CCCCCSCCCCCCCCCCn1c2c(c3cc(O)ccc31)CCc1cc(O)ccc1-2 [Compound 16, 6,11-dihydro-3,8-dihydroxy-5H-1-[10-(pentylthio)-decyl]benzo[a]carbazole]
RBA(*) relative binding affinity for the estrogen receptor [1]: 0.13 | T/C [%] ([2]; substance concentration 1 · 10^−5 M in the incubation medium): −38.6 ±13.9% | T/C [%] [2, 3]: −7.8 ± 8.9% | T/C [%] [2, 4]: −18.5 ± 15.4% | T/C [%] ([2]; substance concentration 6 · 10^−6 M in the incubation medium): −31.1 ± 10.0%

CCCCN(C)C(=O)CCCSCCCCCCn1c(-c2ccc(O)cc2)c(C)c2cc(O)ccc21 [Compound 13, 1-{6-[3′-(n-butyl-methylcarbamoyl)-propylthio]-hexyl}-5-hydroxy-2-(4-hydroxyphenyl)-3-methylindole]
RBA(*) relative binding affinity for the estrogen receptor [1]: 1.3 | T/C [%] [2, 3]: 15.8 ± 6.9% | T/C [%] [2, 4]: 40.2 ± 11.4% | T/C [%] [2, 5]: 92.9 ± 15.2% | T/C [%] [2, 6]: 85.6 ± 16.0%

Cc1c(-c2ccc(O)cc2)n(CCCCCCCCCS(=O)(=O)CCCC(F)(F)C(F)(F)F)c2ccc(O)cc12 [Compound 12, 5-hydroxy-2-(4-hydroxyphenyl)-3-methyl-1-[9-(4,4,5,5,5-pentafluoropentylsulfonyl)-nonyl]-indole]
RBA(*) relative binding affinity for the estrogen receptor [1]: 1.0

CCCCCS(=O)(=O)CCCCCCCCCCn1c(-c2ccc(O)cc2)c(C)c2cc(O)ccc21 [Compound 3, 5-Hydroxy-2-(4-hydroxyphenyl)-3-methyl-1-[10-(pentylsulfonyl)-decyl]-indole]
action of estrogen (0.4 μg/animal) on the uterus (antiestrogenic effect) (uterus of infantile mice; 10 mg/kg s.c., three successive days, with estrogen 0.4 μg/animal): completely cancelled out | dry weight of the uterus compared to control level (uterus of infantile mice; dose of 35 mg/kg s.c., three successive days): still lies below the control level | estrogenic action on the uterus of infantile mice (uterus of infantile mice): does not show any estrogenic action

CNC(=O)CCCCCCCCCCn1c(-c2ccc(OC)cc2)c(C)c2cc(OC)ccc21 [Example 7, 5-Methoxy-2-(4-methoxyphenyl)-3-methyl-1-[10-(N-methylcarbamoyl)-decyl]-indole]
melting point: 88 °C

Cc1c(-c2ccc(O)cc2)n(CCCCCCCCCCCN(C)S(=O)(=O)Cc2ccccc2)c2ccc(O)cc12 [Compound 9, 5-hydroxy-2-(4-hydroxyphenyl)-3-methyl-1-[11-(N-methyl-phenylmethanesulfonamido)-undecyl]-indole]
RBA(*) relative binding affinity for the estrogen receptor [1]: 1.0

COc1ccc(-c2c(C)c3cc(OC)ccc3n2CCCCCCCCSc2ccccn2)cc1 [Example 6, 5-Methoxy-2-(4-methoxyphenyl)-3-methyl-1-[8-(2-pyridinylthio)-octyl]-indole]
melting point: 75 to 77 °C

CCCCN(C)S(=O)(=O)CCCCCCCCCCn1c(-c2ccc(O)cc2)c(C)c2cc(O)ccc21 [Compound 10, 1-[10-(n-butyl-methylsulfamoyl)-decyl]-5-hydroxy-(4-hydroxyphenyl)-3-methylindole]
RBA(*) relative binding affinity for the estrogen receptor [1]: 2.6 | T/C [%] [2, 3]: −12.3 ± 6.3% | T/C [%] [2, 4]: −13.4 ± 4.5% | T/C [%] [2, 5]: 0.5 ± 6.3% | T/C [%] [2, 6]: 86.3 ± 18.0%

CCCCC[S+]([O-])CCCCCCCCCCn1c(-c2ccc(O)cc2)c(C)c2cc(O)ccc21 (stereo not shown) [Compound 2, 5-Hydroxy-2-(4-hydroxyphenyl)-3-methyl-1-[10-(pentylsulfinyl)-decyl]-indole]
RBA(*) relative binding affinity for the estrogen receptor [1]: 3.4

CCCCCS(=O)(=O)CCCCOc1ccc(Cn2c(-c3ccc(O)cc3)c(C)c3cc(O)ccc32)cc1 [Compound 15, 5-hydroxy-2-(4-hydroxyphenyl)-3-methyl-1-[4-[4-(pentylsulfonyl)butoxy]-benzyl]-indole]
RBA(*) relative binding affinity for the estrogen receptor [1]: 9.5

Cc1c(-c2ccc(O)cc2)n(CCCCCCCCSc2ccccn2)c2ccc(O)cc12 [Compound 6, 5-hydroxy-2-(4-hydroxyphenyl)-3-methyl-1-[8-(2-pyridinylthio)-octyl]-indole]
RBA(*) relative binding affinity for the estrogen receptor [1]: 1.4 | melting point: 56 to 60 °C

CCCS(=O)(=O)CCCCCCCCCCCCn1c(-c2ccc(O)cc2)c(C)c2cc(O)ccc21 [Compound 4, 5-hydroxy-2-(4-hydroxyphenyl)-3-methyl-1-[12-(propylsulfonyl)-dodecyl]-indole]
RBA(*) relative binding affinity for the estrogen receptor [1]: 1.9

CCCCCSCCCCCCCCCCn1c(-c2ccc(O)cc2)c(C)c2cc(O)ccc21 [Compound 1, 5-Hydroxy-2-(4-hydroxyphenyl)-3-methyl-1-[10-(pentylthio)-decyl]-indole]
RBA(*) relative binding affinity for the estrogen receptor [1]: 0.3

Cc1c(-c2ccc(O)cc2)n(CCCCCCCCC[S+]([O-])CCCC(F)(F)C(F)(F)F)c2ccc(O)cc12 (stereo not shown) [Compound 11, 5-hydroxy-2-(4-hydroxyphenyl)-3-methyl-1-[9-(4,4,5,5,5-pentafluoropentylsulfinyl)-nonyl]-indole]
RBA(*) relative binding affinity for the estrogen receptor [1]: 2.4 | estrogenic action on the uterus of infantile mice (uterus of infantile mice): virtually identical results

CCC[S+]([O-])CCCCCCCCCCCCn1c(-c2ccc(O)cc2)c(C)c2cc(O)ccc21 (stereo not shown) [Compound 5, 5-hydroxy-2-(4-hydroxyphenyl)-3-methyl-1-[12-(propylsulfinyl)-dodecyl]-indole]
RBA(*) relative binding affinity for the estrogen receptor [1]: 2.9

5-hydroxy-2-(4-hydroxyphenyl)-3-methyl-1-[12-[2-(N-methyl-imidazolyl)thio]-decyl]-indole [Compound 7]
RBA(*) relative binding affinity for the estrogen receptor [1]: 2.0 | T/C [%] [2, 3]: 36.8 ± 8.7% | T/C [%] [2, 4]: 60.4 ± 9.1% | T/C [%] [2, 5]: 83.8 ± 11.3%

— patent US6503938B1, “2-phenylindoles as antiestrogenic pharmaceutical agents” (Schering Aktiengesellschaft, priority 1994, dated 2003)
